# From PMC11953309 (Nature Communications, 2025)
# System: IBD mouse fecal-derived ex vivo microbial community
# Experiment: Ex vivo screening on IBD mouse fecal-derived microbial community
# Format: cell-based, IL-10-deficient C57BL/6N mouse
smiles,measurement,setting,value
CN[C@H](CC(C)C)C(=O)N[C@H]1C(=O)N[C@@H](CC(N)=O)C(=O)N[C@H]2C(=O)N[C@H]3C(=O)N[C@H](C(=O)N[C@H](C(=O)O)c4cc(O)cc(O)c4-c4cc3ccc4O)[C@H](O)c3ccc(c(Cl)c3)Oc3cc2cc(c3O[C@@H]2O[C@H](CO)[C@@H](O)[C@H](O)[C@H]2O[C@H]2C[C@](C)(N)[C@H](O)[C@H](C)O2)Oc2ccc(cc2Cl)[C@H]1O [vancomycin],Number of differentially abundant species,"10 μg/mL, 48 h anaerobic, mGAM, MaAsLin2 vs blank, FDR-adjusted p < 0.05, n = 3",73
same,"beta diversity (PCoA, Bray-Curtis) clustering vs blank","AIPs 10 μg/mL, vancomycin 1 μg/mL and 10 μg/mL, 48 h",notable differences
